Measured values as given in patent publication US20240216490A1, “Autoantigens Engineered to Suppress Autoimmune Response” (Osprey Biopharmaceuticals, Inc., priority 2022, published 2024).
pIC50: −log10 of the molar value.

Legend:
C57Bl/6 mice [1] = assay: ADA response to adalimumab-anti-mouse CD22 scFv fusion protein in mice (Example 15); format: in vivo; conditions: after a single 4 mg/kg dose
Source text: To evaluate the production of antibodies specific to adalimumab and/or adalimumab-anti-mouse CD22 scFv fusion protein, 8 week old female C57BL/6 mice (n=5 per group) were immunized through intravenous injection with adalimumab or adalimumab-anti-mouse CD22 scFv fusion protein. On study day −1, animals were randomized into treatment groups based on body weight. On study day 0, animals were bled for baseline serum and then injected IV with adalimumab or adalimumab-anti-mouse CD22 scFv fusion protein. Animals were dosed […] with 4 mg/kg of adalimumab or adalimumab-anti-mouse CD22 scFv fusion protein. Animals were bled via the retro-orbital sinus weekly throughout the study under inhaled isoflurane anesthesia. On study day, 28 animals were anesthetized with inhaled isoflurane anesthesia and then bled via cardiac puncture and then sacrificed by cervical dislocation. […]
(§1) ADA assays were performed on 96-well assay plates (Nunc Plates, Black 96-Well Immuno Plates, Thermo Scientific, 437111) coated with antigen, as follows. […] The excitation and emission settings for the QuantaBlu Fluorogenic Peroxide Substrates are 325 nm and 420 nm and the relative florescence units were measured using a SpectraMax plate reader. […] Titers were determined by the dilution of serum that gives a 2× OD above background.

C57Bl/6 mice [2] = assay: durability of tolerization with late adalimumab challenges (Example 12); format: in vivo, mouse; conditions: 4 weekly 4 mg/kg s.c. doses, then adalimumab 4 mg/kg at days 91, 147, 174, 202
Protocol: To evaluate the durability of the induced tolerization status established with the SigL-conjugated adalimumab (as exemplified in Examples 4 and 11), female C57Bl/6 mice (n=5 per group) were primed with four subcutaneous doses of either SigL-conjugated adalimumab (4 mg/kg) or unconjugated adalimumab (4 mg/kg) given seven days apart over a 28 day period. Animals in both groups were later challenged with single subcutaneous doses of unconjugated adalimumab (4 mg/kg) at days 91, 147, 174, and 202. Animals were injected with 0.1 ml (˜4 mg/kg) of the 0.8 mg/ml test article preparations on the rear flanks. The total dose based on a 20 g mouse would be 4 mg/kg per injection per dose. Bleeds were taken for anti-drug antibody analysis at days 0, 28, 112, 146, 168, 201, and 232. Anti-drug antibody (ADA) response assays were performed as described in Example 4.

C57BL6 mice [3] = assay: prophylactic tolerization and anti-drug antibody (ADA) production in C57BL6 mice (Example 4); format: in vivo, mouse; conditions: 4 weekly s.c. doses of 4 mg/kg; serum day 28
Source text: To evaluate the production of antibodies specific to adalimumab, two control groups of C57BL6 mice were immunized with adalimumab or the individual SigL-conjugated adalimumab antibodies. Conjugates bear BPC-Neu5Gc-based Siglec Ligand-Linker structures with affinity for Siglec-2. On study day −1, animals were randomized into treatment groups based on body weight. On study day 0, animals were bled for baseline serum and then injected subcutaneously (s.q.) with adalimumab or the individual SigL-conjugated adalimumab antibodies once every seven days for a total of four injections over twenty-eight days. The individual antigens were prepared by making a 0.8 mg/ml antigen solution in sterile buffered saline. Animals were then injected with 0.1 ml (˜4 ml/kg) of the 0.8 mg/ml antigen on the rear flanks. The total dose based on a 20 g mouse would be 4 mg/kg per injection. […]
as §1, with “Anti-drug antibody (ADA) response” for “ADA”

C57BL6 mice [4] = assay: anti-antigen antibody production in C57BL6 mice pre-dosed with adalimumab (Example 5); format: in vivo, mouse; conditions: one to four weekly 4 mg/kg s.c. doses (groups A to D); serum day 27
Source text: To evaluate the production of antibodies specific to adalimumab-SigL conjugates after pre-dosing with adalimumab, C57BL6 mice were immunized with adalimumab one, two, three, or four times (groups A to D), or once with adalimumab followed by two doses of adalimumab-SigL (Group E) (FIG. 5). Conjugates bear BPC-Neu5Gc-based Siglec Ligand-Linker structures with affinity for Siglec-2. On study day −1, animals were randomized into treatment groups based on body weight. On study day 0, animals were bled for baseline serum and then injected subcutaneously (s.q.) with adalimumab, SigL-conjugated adalimumab antibody, or PBS, once every seven days for a total of four injections over twenty-eight days. The individual antigens were prepared by making a 0.8 mg/ml antigen solution in sterile buffered saline. Animals were then injected with 0.1 ml (˜4 ml/kg) of the 0.8 mg/ml antigen on the rear flanks. […]
as §1, with “Anti-drug antibody (ADA) response” for “ADA”

C57Bl/6 mice [5] = assay: ex vivo flow cytometry of splenic adalimumab-specific and germinal center B cells (Example 13); format: in vivo, mouse
Protocol: To measure B cell activation following the described stimulation, cells were washed twice by spinning cells at 1200 rpm for 5 minutes and rinsing with PBS. Cells were then resuspended in staining buffer (1% bovine serum albumin/0.1% sodium azide/1× phosphate buffered saline) and incubated with Fc-block (BD Biosciences) for five minutes before the addition of anti-CD45, anti-CD19, anti-CD69, and anti-CD86 antibodies (BD Biosciences, Biolegend, Fisher). Cells were then incubated in the dark for an additional 30 minutes at room temperature. Cells were then washed three times with staining buffer and then analyzed on a ZE5 Cell Analyzer (BioRad). Data analysis was performed using FlowJo (v10.8.0) software.
For studies evaluating the generation of adalimumab-specific B cells, C57Bl/6 mice were dosed with a single subcutaneous dose of either SigL-adalimumab (4 mg/kg) or unconjugated adalimumab (4 mg/kg). Splenocytes were then isolated from animals seven days after dosing. In the experiment depicted in FIG. 15, mice that had been dosed with unconjugated adalimumab (4 mg/kg) on Day 0 were dosed again on Day 3 with SigL-adalimumab (4 mg/kg, subcutaneous) or vehicle (PBS) prior to splenocyte isolation on Day 7 of the study.
For the evaluation of germinal center formation (FIG. 14), C57Bl/6 mice were dosed with a single subcutaneous dose of either SigL-adalimumab (4 mg/kg), unconjugated adalimumab (4 mg/kg) or vehicle (PBS) on Day 0. Animals in each arm of this study were then dosed on Day 7 with either a single subcutaneous dose of SigL-adalimumab (4 mg/kg) or unconjugated adalimumab (4 mg/kg). Formation of adalimumab-specific B cells and germinal center B cells were then analyzed on Day 14 of the study as described below.
At the specified time points described above, splenocytes were harvested from individual animals and made into single cell suspension, subjected to red cell lysis using ACK buffer, and plated at a concentration of 200,000 cells per well in round bottom 96 well plates in complete RPMI media. Cells were then processed for flow cytometry as described above. For adalimumab-specific B cells, splenocytes were stained with anti-CD4, ant-CD8a, anti-F4/80, anti-LY6G, anti-CD19, anti-IgD (BD Biosciences, Biolegend, Fisher, eBioscience) and adalimumab-[…] conjugate (Invitrogen). For germinal center B cells, splenocytes were stained with anti-CD45, anti-CD19, anti-GL7, and anti-CD95. Cells were then incubated in the dark for an additional 30 minutes at room temperature. Cells were then washed three times with staining buffer and then analyzed on a ZE5 Cell Analyzer (BioRad). Data analysis was performed using FlowJo (v10.8.0) software.

Siglec-2 (CD22) = target: T1, Siglec-2 (CD22) (Homo sapiens, UniProt P20273); conditions: value from cited reference; cited from earlier work
T1 sequence (P20273 20-847): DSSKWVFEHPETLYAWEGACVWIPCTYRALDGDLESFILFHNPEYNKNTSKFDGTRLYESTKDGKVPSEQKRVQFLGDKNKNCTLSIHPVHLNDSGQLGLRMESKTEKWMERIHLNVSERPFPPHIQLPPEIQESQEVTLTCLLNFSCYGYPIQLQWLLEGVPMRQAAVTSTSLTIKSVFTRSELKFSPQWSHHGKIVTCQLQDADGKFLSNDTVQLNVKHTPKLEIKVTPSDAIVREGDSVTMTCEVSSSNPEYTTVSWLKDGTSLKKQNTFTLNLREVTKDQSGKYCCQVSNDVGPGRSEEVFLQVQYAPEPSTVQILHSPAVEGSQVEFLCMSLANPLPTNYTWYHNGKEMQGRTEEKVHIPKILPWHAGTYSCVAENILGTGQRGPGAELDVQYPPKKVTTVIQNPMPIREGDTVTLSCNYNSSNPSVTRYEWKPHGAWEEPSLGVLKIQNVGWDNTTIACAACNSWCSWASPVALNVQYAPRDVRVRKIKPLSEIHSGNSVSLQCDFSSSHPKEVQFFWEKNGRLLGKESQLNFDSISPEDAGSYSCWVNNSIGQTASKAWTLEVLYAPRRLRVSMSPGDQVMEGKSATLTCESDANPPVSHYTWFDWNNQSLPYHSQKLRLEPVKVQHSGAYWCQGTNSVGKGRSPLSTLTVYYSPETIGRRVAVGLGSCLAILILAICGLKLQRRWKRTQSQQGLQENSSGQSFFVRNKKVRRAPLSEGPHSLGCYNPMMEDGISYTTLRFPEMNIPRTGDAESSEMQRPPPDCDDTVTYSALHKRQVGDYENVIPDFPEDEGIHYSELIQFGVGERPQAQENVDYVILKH

## adalimumab
C57Bl/6 mice [1]
  immunogenicity in mice (immunoglobulin response): highly immunogenic
C57Bl/6 mice [2]
  anti-drug antibody level: strong, saturating level of ADA
C57BL6 mice [3]
  immunogenicity (anti-drug antibody response, serum IgG titer): highly immunogenic
C57BL6 mice [4]
  anti-adalimumab titers: progressively stronger anti-adalimumab titers
C57Bl/6 mice [5]; 7 days post single 4 mg/kg s.c. dose
  presence of adalimumab-specific B cells (CD45+CD19+IgD−Adal+) in spleen: detected
C57Bl/6 mice [5]; day 14, s.c. dosing days 0 and 7, conjugate day 0 followed by adalimumab day 7
  splenic adalimumab-specific B cells: induces
C57Bl/6 mice [5]; spleen, 7 days post single 4 mg/kg s.c. dose
  mean abundance of adalimumab-specific B cells: 0.2 % of splenic IgD^− B cells
C57Bl/6 mice [5]; spleen, day 14, dosing days 0 and 7
  germinal center B cells (CD19+CD95+GL7+): increase in the abundance of germinal center B cells

## COC1(C(=O)O)CC(NS(=O)(=O)c2ccc(C)cc2)C(NC(C)=O)C(C(O)C(O)CNC(=O)c2ccc(-c3ccccc3)cc2)O1 (stereo not shown)
Siglec-2 (CD22)
  pIC50: 6.82

## CO[C@]1(C(=O)O)CC(O)[C@@H](NC(C)=O)C([C@H](O)[C@H](O)CNC(=O)c2ccc(-c3ccccc3)cc2)O1 (stereo partly shown)
Siglec-2 (CD22)
  pIC50: 5.40

## COc1ccc(OC2OC(COC3(C(=O)O)CC(O)C(NC(=O)CO)C(C(O)C(O)CNCc4ccc(-c5ccc(O)cc5)cc4)O3)C(O)C(O)C2O)cc1 (stereo not shown)
Siglec-2 (CD22)
  pIC50: 6.62

## O=C(Cc1ccc(-c2ccc(O)cc2)cc1)NCC(O)C(O)C1OC(OCc2ccccc2)(C(=O)O)CC(O)C1NC(=O)CO (stereo not shown)
Siglec-2 (CD22)
  pIC50: 7.00

## O=C(Cc1ccc(-c2ccc(O)cc2)cc1)NC[C@@H](O)C(O)C1O[C@@](OCc2cccc(Cl)c2Cl)(C(=O)O)CC(O)[C@H]1NS(=O)(=O)c1ccccc1[N+](=O)[O-] (stereo partly shown)
Siglec-2 (CD22)
  pIC50: 7.22
